Data on 24 compounds can be found in ChEMBL document CHEMBL3286100, “Synthesis and β-glucuronidase inhibitory activity of 2-arylquinazolin-4(3H)-ones” (Bioorg Med Chem, 2014).

One test has as its target T1, Beta-glucuronidase (Homo sapiens, UniProt P08236).
T1 sequence (P08236 whole entry): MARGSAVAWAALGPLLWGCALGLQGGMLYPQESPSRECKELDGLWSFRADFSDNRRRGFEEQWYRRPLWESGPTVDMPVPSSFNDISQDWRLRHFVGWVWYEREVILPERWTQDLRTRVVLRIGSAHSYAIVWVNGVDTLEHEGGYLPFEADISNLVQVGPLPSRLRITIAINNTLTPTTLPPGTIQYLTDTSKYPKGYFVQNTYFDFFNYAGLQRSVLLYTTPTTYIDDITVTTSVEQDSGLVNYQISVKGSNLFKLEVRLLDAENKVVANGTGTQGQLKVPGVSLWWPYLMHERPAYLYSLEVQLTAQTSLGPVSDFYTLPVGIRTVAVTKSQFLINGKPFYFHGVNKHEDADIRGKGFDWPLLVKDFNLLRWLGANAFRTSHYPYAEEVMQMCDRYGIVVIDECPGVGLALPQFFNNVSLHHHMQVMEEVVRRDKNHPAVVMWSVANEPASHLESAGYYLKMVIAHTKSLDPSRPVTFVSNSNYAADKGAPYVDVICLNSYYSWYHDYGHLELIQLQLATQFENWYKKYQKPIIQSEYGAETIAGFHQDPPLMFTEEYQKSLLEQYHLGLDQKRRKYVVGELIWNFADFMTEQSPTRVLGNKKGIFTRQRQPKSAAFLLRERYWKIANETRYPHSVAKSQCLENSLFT
Put plainly: Inhibition of beta-glucuronidase activity (unknown origin) assessed as p-nitrophenol formation after 30 mins using p-nitrophenyl-beta-D-glucuronide as substrate by spectrophotometry.

In another test the test system is PC-3. Put plainly: cells. The conditions noted are these: Homo sapiens, PC-3, 72 h.

Some results are limits rather than exact numbers.

Description for PC-3: Cytotoxicity against human PC3 cells after 72 hrs by MTT assay

On to `O=c1[nH]c(-c2cccc([N+](=O)[O-])c2)nc2ccccc12`, for which the results for the half-inhibitory concentration (IC50) on Beta-glucuronidase and in the test on PC-3 were 50.4 µM and > 30 µM, respectively. In the case of `O=c1[nH]c(-c2ccc(O)cc2)nc2ccccc12`, the figures for the half-inhibitory concentration (IC50) on Beta-glucuronidase and in the test on PC-3 were 22.2 µM and > 30 µM, respectively.

As to `CN(C)c1ccc(-c2nc(O)c3ccccc3n2)cc1`, the values for the IC50 on Beta-glucuronidase and in the test with PC-3 were 5.5 µM and > 30 µM, respectively. Take `O=c1[nH]c(-c2ccc(O)c(O)c2)nc2ccccc12`: the IC50 in the test on PC-3 is > 30 µM. `O=c1[nH]c(-c2cccc(O)c2)nc2ccccc12`: the half-inhibitory concentration (IC50) is 198 µM on Beta-glucuronidase and > 30 µM with PC-3. As for `O=c1[nH]c(-c2ccc(Cl)cc2Cl)nc2ccccc12`, the IC50 with PC-3 is > 30 µM. On to `O=c1[nH]c(-c2cc(O)ccc2O)nc2ccccc12`, for which the half-maximal inhibitory concentration (IC50) in the test on PC-3 was > 30 µM. For `Cc1ccc(-c2nc3ccccc3c(=O)[nH]2)cc1`, the half-inhibitory concentration (IC50) on Beta-glucuronidase is 173 µM; in the test on PC-3, > 30 µM.

As for `CCOc1ccccc1-c1nc2ccccc2c(=O)[nH]1`, in the test on PC-3, the IC50 was > 30 µM.

Take `COc1ccc(-c2nc(O)c3ccccc3n2)cc1OC`: in the test with PC-3, the IC50 is > 30 µM. For the compound `CCOc1ccc(-c2nc3ccccc3c(=O)[nH]2)cc1`, the IC50 with PC-3 is > 30 µM.

`COc1ccc(-c2nc3ccccc3c(=O)[nH]2)cc1O`: the half-inhibitory concentration (IC50) on Beta-glucuronidase is 2.8 µM; in the test on PC-3 it was > 30 µM.

For `O=c1[nH]c(-c2c(Cl)cccc2Cl)nc2ccccc12`, in the test with PC-3, the IC50 was > 30 µM. As to `O=c1[nH]c(-c2ccccc2Cl)nc2ccccc12`, in the test with PC-3, the concentration for half-maximal inhibition (IC50) was > 30 µM.

For the compound `O=c1[nH]c(-c2ccccc2[N+](=O)[O-])nc2ccccc12`, the concentration for half-maximal inhibition (IC50) with PC-3 is > 30 µM. In the case of `O=c1[nH]c(-c2ccccc2O)nc2ccccc12`, the half-inhibitory concentration (IC50) at Beta-glucuronidase is 10 µM; in the test on PC-3, > 30 µM. As to `COc1ccc(-c2nc3ccccc3c(=O)[nH]2)cc1`, the results for the IC50 on Beta-glucuronidase and in the test on PC-3 were 1.1 µM and > 30 µM, respectively. With `O=c1[nH]c(-c2ccc(Cl)cc2)nc2ccccc12`, the IC50 in the test on PC-3 is > 30 µM. Turning to `O=c1[nH]c(-c2c(O)cccc2Br)nc2ccccc12`, in the test on PC-3, the IC50 was > 30 µM. As for `COc1cc(-c2nc3ccccc3c(=O)[nH]2)cc(OC)c1OC`, the half-inhibitory concentration (IC50) is 120 µM at Beta-glucuronidase and > 30 µM in the test on PC-3. As for `COc1cccc(-c2nc3ccccc3c(=O)[nH]2)c1O`, the IC50 in the test on PC-3 is > 30 µM.

With `O=c1[nH]c(-c2ccc([N+](=O)[O-])cc2)nc2ccccc12`, the IC50 on Beta-glucuronidase was 20.1 µM; with PC-3, > 30 µM. With `COc1ccc(O)c(-c2nc3ccccc3c(=O)[nH]2)c1`, in the test on PC-3, the half-maximal inhibitory concentration (IC50) is > 30 µM.

For `CCOc1cc(-c2nc3ccccc3c(=O)[nH]2)ccc1O`, in the test on PC-3, the concentration for half-maximal inhibition (IC50) is > 30 µM.

Usually IC50 stands for the midpoint of a concentration-inhibition curve.
